Data reported in patent publication US20130137102A1, “Methods and kits for modulating tumor invasiveness and metastatic potential” (TUFTS MEDICAL CENTER, INC., priority 2010, published 2013).
Where a SMILES comes first, the peptide text is derived from it. [ ]: non-standard residue; d: D form. Nle = CCCC[C@H](N)C(=O)O

Experiments:
Tiam1 = assay: In vitro Tiam1 cleavage assay; format: biochemical, human; settings: immunoblot
Description: HEK293T cells were transiently transfected with full-length Tiam1 cDNA as previously described (Buchsbaum et al., 2002). Forty-eight hours after transfection, cells were washed once with PBS and lysed in SP buffer as described above. Lysates were cleared of unbroken cells and debris by centrifugation at 10,000×g for 10 minutes. Aliquots of cleared lysates were reserved for immunoblots; the remainder were incubated with protein A-Sepharose beads (Pharmacia) and anti-Tiam1 antibody (diluted according to the manufacturer's instructions) or equal amounts of polyclonal rabbit IgG (Santa Cruz) for 2 h at 4° C. with constant agitation. Immunoprecipitates were washed twice with ice-cold SP buffer and once with Reaction Buffer (20 mM Tris-HCl, pH 7.5, 10 mM DTT, 6 mM CaCl2) in the presence of protease inhibitors (1 mM PMSF and 1.7 μg/ml aprotinin) prior to the cleavage reaction.
Pre-senescent cells were maintained in culture as described above. Senescence was induced with 800 uM H2O2 as described above, and confirmed by SA-β gal staining. Pre-senescent and senescent RMFs were washed with cold PBS, pelleted, and resuspended in extraction buffer (10 mM HEPES pH 7.0, 2 mM MgCl2, 50 mM NaCl, 1 mM DTT) containing inhibitors (17 μg/ml aprotinin, 10 μg/ml leupepsin, 100 μM NaV, 3.3 mM PMSF). Cells were lysed by freeze-thaw cycles in ethanol-liquid nitrogen/37° C. water bath. Extracts were centrifuged at 10,000 g for 15 min at 4° C., and resulting supernatants were used as the cytosolic fraction. Protein concentration was determined by BCA protein assay (Bio-Rad).
Immunoprecipitated proteins were incubated with extracted lysates from pre-senescent or senescent cells in Reaction Buffer for 2 hours at 37° C. with constant agitation. […] Samples were resolved by SDS-PAGE and immunoblotting as described.

RMF cells = assay: Senescence induction and SA-β-Gal staining; format: cell-based, human; settings: repeated 3-5 days later, seven days after induction
Description: After treatment, cells were rinsed twice with phosphate-buffered saline (PBS) and left to recover in culture medium. […] For each treatment, senescence induction was repeated 3-5 days later to prevent recovery and cell cycle re-entry. Cells were sub-cultured for at least 7 days and senescence induction was confirmed by SA-β-gal staining.
SA-β-Gal staining was conducted as described previously [Dimri, G P, et al., 1995, Proc Natl Acad Sci USA 92:9363-7]. Briefly, cells were washed twice in PBS and fixed 5 minutes in 2% formaldehyde/0.2% glutaraldehyde, washed again, and incubated at 37° C. overnight with fresh senescence-associated β-Gal (SA-β-Gal) stain solution: 1 mg 5-bromo-4-chloro-3-indolyl-β-D-galactoside (X-Gal) per ml (stock=20 mg in dimethylformamide per ml)/40 mM citric acid/sodium phosphate, pH 6.0/5 mM potassium ferrocyanide/5 mM potassium ferricyanide/150 mM NaCl/2 mM MgCl2. Cells with positive staining were observed and counted under a light microscope (Nikon, Eclipse TS100).

HMECs = assay: Spheroid co-culture in Matrigel with senescent RMFs; format: cell-based, human; settings: RMFs exposed to the agent before co-culture; preliminary examples
Description: (§1) As described previously [Xu K, et al., 2010, Oncogene 29:6533-42], Matrigel (BD Biosciences) was diluted in 1:1 ratio with ice-cold HMEC medium, and 50 μl of the mixture was placed mid-well in a 24-well plate. After incubating for 5 min in 37° C., an additional 250 μl of Matrigel:medium mixture was added into the well and incubated for another 30 min. A 1:1 mixture of HMEC and RMF cells (0.5×10^5 cells each) in 0.5 ml of HMEC medium was gently dropped onto the top of the solidified gel. Cells were cultured for two weeks and medium was changed every two or three days. Spheroid formation and projection growth were monitored daily under light microscopy. Images were obtained on a Diaphot Software Version 4.1 (Diagnostic Instruments Inc).
as §1, with “and 50 ul of the” for “and 50 μl of the”, “another 30 min A 1:1” for “another 30 min. A 1:1”, “light microscopy. […]” for “light microscopy. Images were obtained on a Diaphot Software Version 4.1 (Diagnostic Instruments Inc).”

[1] = test system: T-cell lymphoma invasion and metastasis-inducing protein 1 (Tiam1)
Chain of T-cell lymphoma invasion and metastasis-inducing protein 1 (Tiam1) (chain, as listed by the source): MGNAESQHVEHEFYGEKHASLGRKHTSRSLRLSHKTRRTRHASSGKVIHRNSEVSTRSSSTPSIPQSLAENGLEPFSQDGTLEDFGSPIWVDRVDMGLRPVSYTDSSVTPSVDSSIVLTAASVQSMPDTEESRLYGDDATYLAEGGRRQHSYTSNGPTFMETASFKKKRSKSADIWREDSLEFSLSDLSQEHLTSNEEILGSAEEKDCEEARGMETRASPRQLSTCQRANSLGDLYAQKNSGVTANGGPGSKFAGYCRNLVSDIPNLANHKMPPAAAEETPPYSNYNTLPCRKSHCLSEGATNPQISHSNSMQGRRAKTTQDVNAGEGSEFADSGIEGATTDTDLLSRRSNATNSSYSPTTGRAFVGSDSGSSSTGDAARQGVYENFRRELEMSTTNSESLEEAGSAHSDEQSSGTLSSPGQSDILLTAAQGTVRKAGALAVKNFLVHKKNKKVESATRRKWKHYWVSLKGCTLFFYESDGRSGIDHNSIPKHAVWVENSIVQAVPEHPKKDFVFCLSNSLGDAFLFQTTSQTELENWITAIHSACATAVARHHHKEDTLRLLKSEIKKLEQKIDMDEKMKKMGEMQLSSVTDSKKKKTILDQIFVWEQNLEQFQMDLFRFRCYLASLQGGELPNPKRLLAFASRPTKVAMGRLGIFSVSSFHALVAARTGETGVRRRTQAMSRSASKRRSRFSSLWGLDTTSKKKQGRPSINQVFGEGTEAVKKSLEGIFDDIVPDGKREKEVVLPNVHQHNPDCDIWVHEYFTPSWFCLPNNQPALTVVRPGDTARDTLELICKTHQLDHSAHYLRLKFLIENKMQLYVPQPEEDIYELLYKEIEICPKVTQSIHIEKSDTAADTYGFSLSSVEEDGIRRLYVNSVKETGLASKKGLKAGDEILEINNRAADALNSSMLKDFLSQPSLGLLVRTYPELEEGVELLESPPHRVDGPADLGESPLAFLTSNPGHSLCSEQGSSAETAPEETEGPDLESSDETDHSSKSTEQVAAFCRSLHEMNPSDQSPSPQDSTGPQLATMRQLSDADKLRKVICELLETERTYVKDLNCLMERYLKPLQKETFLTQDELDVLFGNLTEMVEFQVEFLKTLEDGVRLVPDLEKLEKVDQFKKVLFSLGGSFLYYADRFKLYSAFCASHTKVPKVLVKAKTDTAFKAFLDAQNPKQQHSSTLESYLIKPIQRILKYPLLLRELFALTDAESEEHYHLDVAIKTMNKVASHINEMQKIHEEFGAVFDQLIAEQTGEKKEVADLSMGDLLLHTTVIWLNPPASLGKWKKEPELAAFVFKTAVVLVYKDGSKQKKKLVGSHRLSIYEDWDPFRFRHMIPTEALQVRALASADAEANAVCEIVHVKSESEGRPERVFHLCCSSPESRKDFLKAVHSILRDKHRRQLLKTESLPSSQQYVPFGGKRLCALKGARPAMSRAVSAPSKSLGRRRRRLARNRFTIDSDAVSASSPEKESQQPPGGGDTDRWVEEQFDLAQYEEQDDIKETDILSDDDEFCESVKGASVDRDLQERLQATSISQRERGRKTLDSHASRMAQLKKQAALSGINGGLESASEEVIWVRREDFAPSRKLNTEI

CCCC[C@@H](C=O)NC(=O)[C@H](CC(C)C)NC(=O)[C@H](CC(C)C)NC(C)=O [ALLN] (Ac-Leu-Leu-[Nle]-aldehyde)
degradation of immobilized Tiam1 induced by senescent lysates (Tiam1; lysates pre-incubated on ice 30 minutes with 50 μM ALLN): significantly inhibited degradation of the immobilized Tiam1

O=C(O)CN(CCN(CC(=O)O)CC(=O)O)CC(=O)O [EDTA]
degradation of immobilized Tiam1 induced by senescent lysates (Tiam1; lysates pre-incubated on ice 30 minutes with 1 mM EDTA): significantly inhibited degradation of the immobilized Tiam1

OO [H2O2, hydrogen peroxide]
induction of senescence (morphology, SA β-gal staining) (RMF cells; 800 μmol/L H2O2 for 2 hours): had taken on a morphologic appearance characteristic of senescence | HMEC invasiveness into matrix on co-culture with RMFs rendered senescent by the agent (HMECs): increased invasiveness into the surrounding matrix

CC(C)C[C@H](NC(=O)[C@H](Cc1ccccc1)NC(=O)c1cnccn1)B(O)O [bortezomib]
degradation of immobilized Tiam1 by senescent lysates (Tiam1; lysates pre-incubated with 5 nM bortezomib at 37° C. for 24 hours): did not prevent degradation of immobilized Tiam1

bleomycin
induction of senescence (morphology, SA β-gal staining) (RMF cells; 50 μg/ml bleomycin for 24 hours): had taken on a morphologic appearance characteristic of senescence | HMEC invasiveness into matrix on co-culture with RMFs rendered senescent by the agent (HMECs): increased invasiveness into the surrounding matrix

calpain proteases
degradation of immunoprecipitated Tiam1 (in vitro Tiam1 cleavage assay, immunoblot) [1]: Pre-incubation of cell lysates with either the calpain inhibitor ALLN or the calcium-chelator EDTA significantly inhibited degradation of the immobilized Tiam1 induced by senescent lysates
